According to patent EP4775577A1, “RAS INHIBITOR” (Tyligand Bioscience (Shanghai) Limited, priority 2023, dated 2025):

Tests used:
[1] = tested on: KRAS G12S mutant A549 cells; assay: Proliferation inhibition of A549 cells, 3D CellTiter-Glo assay; assay type: cell-based; conditions: Homo sapiens, A549, 120 h, read-out: A549 IC50/nM
Experimental: A549 cells (Nanjing Kebai Biotechnology Co., Ltd., catalog number CBP60084, adherent, culture medium (F12K Nutrient Mixture+10%FBS (GIBCO, Cat#10091-148) at 37°C, 5%CO2, and 95% humidity.
3D Cell Viability Assay: Cells in the logarithmic growth phase were harvested and counted using a platelet counter. Cell viability was assessed using the trypan blue exclusion method to ensure a viability of over 90%. The 3D cell culture medium was prepared by adding 1% MC (methylcellulose, Sigma, Cat#M0512) F-12K medium and 10% FBS. The cell concentration was adjusted to approximately 7407 cells/mL using the 3D medium, and the methylcellulose (MC) content was set to 0.65%. Then, 135 µL of cell suspension was added to each 96-well clear, flat-bottomed, black-walled plate (Greiner, Cat#655096). The cells in the 96-well plates were cultured overnight at 37°C with 5% CO2.
Drug preparation for IC50 assay: A 10-fold drug solution was prepared using culture medium. […] of the drug solution was added to each well of a 96-well plate seeded with cells to achieve a working concentration of up to 10 µM, with a 3× dilution, and 9 concentrations. 2 replicate wells for each drug concentration were set. The cells in the drug-treated 96-well plates were cultured at 37°C and 5% CO^2 for additional5 days, then CTG assay (CellTiter-Glo® Luminescent Cell Viability Assay (Promega, Cat#G7573)) were performed.
The cell plate was equilibrated to room temperature for 30 minutes and the CTG reagent was thawed. 75 µL of CTG solution was added to each well for detection, and the plate was shaken on an orbital shaker for 5 minutes to lyse the cells. The cell plate was placed at room temperature for 25 minutes to stabilize the cryo-luminescence signal and the cryo-luminescence value was read (EnVision® multi-plate reader, PerkinElmer#2105).
Data was analyzed using GraphPad Prism software. The dose-response-inhibition equation was used to fit the data to obtain the dose-response curve, and the IC50 value (nM) was calculated accordingly. [formula]

[2] = tested on: KRAS G12V mutant NCI-H727 cells; assay: Proliferation inhibition of NCI-H727 cells, 3D CellTiter-Glo assay (Method B); assay type: cell-based, human; conditions: Homo sapiens, NCI-H727, 120 h, Method B; 3D culture with 0.65% methylcellulose, 5 days, CTG; read-out: NCI-H727 IC50/nM
Procedure, shortened: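 Cells grown in 3D medium (RPMI-1640, 10% FBS, 0.65% methylcellulose) overnight, then treated 5 days at 37 °C, 5% CO2 with 9 threefold dilutions from 10 µM top working concentration, duplicate wells. CellTiter-Glo luminescence read; IC50 (nM) fitted by dose-response-inhibition equation.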

[3] = tested on: KRAS G12D mutant AGS cells; assay: Proliferation inhibition of AGS cells, CellTiter-Glo assay; assay type: cell-based, human; conditions: Homo sapiens, AGS, 72 h, 3 days, CTG; read-out: AGS IC50/nM
Procedure, shortened: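 AGS cells at 1500 cells/well in F12K + 10% FBS were exposed for 3 days at 37°C to nine 3-fold dilutions from 10 µM top concentration, in duplicate. Viability read by CellTiter-Glo luminescence; IC50 (nM) from dose-response-inhibition fitting.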

SMILES | IC50 [1] [nM] | IC50 [2] [nM] | IC50 [3] [nM]
CN1CC[C@H](C(F)F)[C@](C)(COc2nc(N3CCOC[C@@](C)(O)C3)c3cc(C(F)(F)F)c(-c4cccc5sc(N)c(C#N)c45)c(F)c3n2)C1 (atropisomer, axis not shown) [Example 5A, (S)-2-amino-4-(2-(((3S,4S)-4-(difluoromethyl)-1,3-dimethylpiperidine-3-yl)methoxy)-8-fluoro-4-((S)-6-hydroxy-6-methyl-1,4-oxazol-4-yl)-6-(trifluoromethyl)quinazoline-7-yl)benzo[b]thiophene-3-carbonitrile] | 16.5 | < 1.5 | 1.6
CN1CC/C(=C\F)[C@](C)(COc2nc(N3CCOC[C@@](C)(O)C3)c3cc(C(F)(F)F)c(-c4cccc5sc(N)c(C#N)c45)c(F)c3n2)C1 (atropisomer, axis not shown) [Example 6A, (S)-2-amino-4-(8-fluoro-2-(((S,E)-4-(fluoromethylene)-1,3-dimethylpiperidine-3-yl)methoxy)-4-((S)-6-hydroxy-6-methyl-1,4-oxazol-4-yl)-6-(trifluoromethyl)quinazoline-7-yl)benzo[b]thiophene-3-carbonitrile] | 35.1 | 1.6 | 4.7
[2H]C([2H])([2H])N1CC/C(=C\F)[C@](C)(COc2nc(N3CCCn4nc(C(=O)N(C)C)cc4C3)c3cc(C(F)(F)F)c(-c4c(F)ccc5sc(N)c(C#N)c45)c(F)c3n2)C1 (atropisomer, axis not shown) [Example 68A] | 41.8 | 2.4 | < 1.5
C[C@H]1CCn2nc(C(=O)N(C)C)cc2CN1c1nc(OC[C@]2(C)CN(C)CC/C2=C\F)nc2c(F)c(-c3cccc4sc(N)c(C#N)c34)c(C(F)(F)F)cc12 (atropisomer, axis not shown) [Example 123A] | 33.8 | < 1.5 | < 1.5
[2H]C([2H])([2H])N1CC[C@H](C(F)F)[C@](C)(COc2nc(N3CCOC[C@@](C)(O)C3)c3cc(C(F)(F)F)c(-c4c(F)ccc5sc(N)c(C#N)c45)c(F)c3n2)C1 [Example 65A] | 26.1 |  | 1.5
[2H]C([2H])([2H])N1CCC(=CF)C(C)(COc2nc(N3CCCn4nc(C(=O)N(C)C)c(Cl)c4C3)c3cc(CC)c(-c4c(F)ccc5sc(N)c(C#N)c45)c(C)c3n2)C1 (centres unmarked) [Example 186] |  | 5.4 | 4.4
[2H]C([2H])([2H])N1CCC(=CF)C(C)(COc2nc(N3Cc4cc(C(=O)N(C)C)nn4CCC3C)c3cc(CC)c(-c4c(F)ccc5sc(N)c(C#N)c45)c(C)c3n2)C1 (centres unmarked) [Example 188] |  | 3.1 | 2.9
CCc1cc2c(N3Cc4cc(C(=O)N(C)C)nn4CCC3C)nc(OCC3(C)CN(CC)CCC3=CF)nc2c(C)c1-c1c(F)ccc2sc(N)c(C#N)c12 (centres unmarked) [Example 189] |  | 2.6 | 2
[2H]C([2H])([2H])N1CCC(=CF)C(C)(COc2nc(N3CCCn4nc(C(=O)N(C)C)c(Cl)c4C3)c3cc(CC)c(-c4c(F)ccc5sc(N)c(C#N)c45)c(Cl)c3n2)C1 (centres unmarked) [Example 190] |  | 3.2 | < 1.5
[2H]C([2H])([2H])N1CCC(=CF)C(C)(COc2nc(N3Cc4cc(C(=O)N(C)C)nn4CCC3C)c3cc(CC)c(-c4c(F)ccc5sc(N)c(C#N)c45)c(Cl)c3n2)C1 (centres unmarked) [Example 192] |  | 2 | < 1.5
CCc1cc2c(N3Cc4cc(C(=O)N(C)C)nn4CCC3C)nc(OCC3(C)CN(CC)CCC3=CF)nc2c(Cl)c1-c1c(F)ccc2sc(N)c(C#N)c12 (centres unmarked) [Example 193] |  | 2.1 | < 1.5
CCc1cc2c(N3Cc4c(Cl)c(C(=O)N(C)C)nn4CCC3C)nc(OCC3(C)CN(C)CCC3=CF)nc2c(F)c1-c1c(F)ccc2sc(N)c(C#N)c12 (centres unmarked) [Example 194] |  | < 1.5 | < 1.5
[2H]C([2H])([2H])N1CCC(=CF)C(C)(COc2nc(N3CCCn4nc(C(=O)N(C)C)c(Cl)c4C3)c3cc(Cl)c(-c4c(F)ccc5sc(N)c(C#N)c45)c(Cl)c3n2)C1 (centres unmarked) [Example 195] |  | 2.5 | 2.5
[2H]C([2H])([2H])N1CCC(=CF)C(C)(COc2nc(N3Cc4cc(C(=O)N(C)C)nn4CCC3C)c3cc(Cl)c(-c4c(F)ccc5sc(N)c(C#N)c45)c(Cl)c3n2)C1 (centres unmarked) [Example 197] |  | 2.1 | 3
CCN1CCC(=CF)C(C)(COc2nc(N3Cc4cc(C(=O)N(C)C)nn4CCC3C)c3cc(Cl)c(-c4c(C#N)c(N)cc(C)c4C(F)(F)F)c(C)c3n2)C1 (centres unmarked) [Example 221] |  | 71.8 | 103
CCC1CCn2nc(C(=O)N(C)C)cc2CN1c1nc(OCC2(C)CN(CC)CCC2=CF)nc2c(F)c(-c3c(F)ccc4sc(N)c(C#N)c34)c(Cl)cc12 (centres unmarked) [Example 250A] |  | < 1.5 | < 1.5
CCN1CC/C(=C\F)[C@](C)(COc2nc(N3CCCn4nc(C(=O)N(C)C)c(Cl)c4C3)c3cc(C(F)(F)F)c(-c4ncc(F)c5sc(N)c(C#N)c45)c(F)c3n2)C1 [Example 253] |  | 8.7 | 2.5
CCN1CCC(=CF)C(C)(COc2nc(N3Cc4cc(C(=O)N5CCC5)nn4CCC3C)c3cc(Cl)c(-c4c(F)ccc5sc(N)c(C#N)c45)c(F)c3n2)C1 (centres unmarked) [Example 254A] |  | < 1.5 | < 1.5
CCN1CCC(=CF)C(C)(COc2nc(N3Cc4c(Cl)nnn4CCC3C)c3cc(Cl)c(-c4c(F)ccc5sc(N)c(C#N)c45)c(F)c3n2)C1 (centres unmarked) [Example 259A] |  | 1.7 | 3.1
CCN1CCC(=CF)C(C)(COc2nc(N3Cc4cc(C(=O)N5CCN(C)CC5)nn4CCC3C)c3cc(Cl)c(-c4c(F)ccc5sc(N)c(C#N)c45)c(F)c3n2)C1 (centres unmarked) [Example 261A] |  | 1.9 | < 1.5
CCN1CCC(=CF)C(C)(COc2nc(N3Cc4cc(C(=O)N5CCCC5)nn4CCC3C)c3cc(Cl)c(-c4c(F)ccc5sc(N)c(C#N)c45)c(F)c3n2)C1 (centres unmarked) [Example 262A] |  | 2.4 | 2.9
[2H]C([2H])([2H])N1CCC(=CF)C(C)(COc2nc(N3Cc4cc(C(=O)N5CCOCC5)nn4CCC3C)c3cc(CC)c(-c4c(F)ccc5sc(N)c(C#N)c45)c(F)c3n2)C1 (centres unmarked) [Example 263A] |  | 2.5 | 2.5
CCN1CCC(=CF)C(C)(COc2nc(N3Cc4cc(C(=O)N(C)CCF)nn4CCC3C)c3cc(Cl)c(-c4c(F)ccc5sc(N)c(C#N)c45)c(F)c3n2)C1 (centres unmarked) [Example 264A] |  | 2.8 | 2.3
[2H]C([2H])([2H])N1CC/C(=C\F)[C@](C)(COc2nc(N3Cc4cc(C(=O)NC)nn4CC[C@@H]3C)c3cc(CC)c(-c4c(F)ccc5sc(N)c(C#N)c45)c(F)c3n2)C1 [Example 270A] |  | 4.9 | 3.6
CCN1CC/C(=C\F)[C@](C)(COc2nc(N3Cc4c(COC)c(C(=O)N(C)C)nn4CC[C@@H]3C)c3cc(Cl)c(-c4ncc(F)c5sc(N)c(C#N)c45)c(F)c3n2)C1 [Example 271A] |  | 8.7 | 9.3
CCN1CC[C@H](C(F)F)[C@](C)(COc2nc(N3Cc4c(COC)c(C(=O)N(C)C)nn4CC[C@@H]3C)c3cc(C(F)(F)F)c(-c4ncc(F)c5sc(N)c(C#N)c45)c(F)c3n2)C1 [Example 272A] |  | 10.4 | 12.5
CCN1CC/C(=C\F)[C@](C)(COc2nc(N3Cc4c(COC)c(C(=O)N(C)C)nn4CC[C@@H]3C)c3cc(Cl)c(-c4c(F)ccc5sc(N)c(C#N)c45)c(OC)c3n2)C1 [Example 273A] |  | 26.6 | 40.6
CCN1CC/C(=C\F)[C@](C)(COc2nc(N3Cc4cc(C(=O)N(C)C)nn4CC[C@@H]3C)c3cc(Cl)c(-c4nccc5sc(N)c(C#N)c45)c(C)c3n2)C1 [Example 276A] |  | 33.4 | 18.5
CCN1CC/C(=C\F)[C@](C)(COc2nc(N3Cc4cc(C(=O)N5CC(F)C5)nn4CC[C@@H]3C)c3cc(Cl)c(-c4c(F)ccc5sc(N)c(C#N)c45)c(F)c3n2)C1 [Example 277A] |  | 1.8 | < 1.5
